Measured values reported in ChEMBL document CHEMBL5325432, “Systematic study of 1,2,3-triazolyl sterols for the development of new drugs against parasitic Neglected Tropical Diseases” (Eur J Med Chem, 2023).

Tests used:
Leishmania donovani = assay: Antileishmanial activity against Leishmania donovani S1 promastigotes assessed as parasite growth inhibition incubated for 72 hrs by Alamar blue assay; format: functional, organism-based; conditions: S1, 72 h
Trypanosoma brucei = assay: Antiparasitic activity against Trypanosoma brucei assessed as parasite growth inhibition incubated for 3 days by Alamar blue assay; format: functional, organism-based; conditions: 72 h
Trypanosoma cruzi = assay: Antiparasitic activity against Trypanosoma cruzi epimastigotes assessed as parasite growth inhibition incubated for 14 days by Alamar blue assay; format: functional, organism-based; conditions: 336 h
[1] = Cytotoxicity against African green monkey Vero cells incubated for 48 hrs; format: toxicity, cell-based; conditions: African green monkey (Chlorocebus sabaeus)
[2] = Selectivity index, ratio of IC50 for cytotoxicity against African green monkey Vero cells to IC50 for antiparasitic activity against Trypanosoma brucei assessed as parasite growth inhibition; format: toxicity, cell-based; conditions: read-out: Ratio IC50
[3] = Selectivity index, ratio of IC50 for cytotoxicity against African green monkey Vero cells to IC50 for antiparasitic activity against Trypanosoma cruzi epimastigotes assessed as parasite growth inhibition; format: toxicity, cell-based; conditions: read-out: Ratio IC50
[4] = Selectivity index, ratio of IC50 for cytotoxicity against African green monkey Vero cells to IC50 for antileishmanial activity against Leishmania donovani S1 promastigotes assessed as parasite growth inhibition; format: toxicity, cell-based; conditions: read-out: Ratio IC50

IC50 (Trypanosoma brucei) [µM]	IC50 (Trypanosoma cruzi) [µM]	Structure (SMILES)	IC50 (Leishmania donovani) [µM]	IC50 at 48 h [1] [µM]	selectivity ratio [2]	selectivity ratio [3]	selectivity ratio [4]
> 10	> 10	C[C@]12CC[C@H]3[C@@H](CC=C4C[C@@H](O)CC[C@@]43C)[C@@H]1CC[C@@H]2[C@@](C)(O)Cn1cc(-c2ccccc2)nn1	> 10	> 10.5			
> 10	> 10	CCOC(=O)Cn1cc(CNC[C@](C)(O)[C@H]2CC[C@H]3[C@@H]4CC=C5C[C@@H](O)CC[C@]5(C)[C@H]4CC[C@@]32C)nn1	> 10	> 9.71			
> 10	> 10	C[C@]12CC[C@H]3[C@@H](CC=C4C[C@@H](O)CC[C@@]43C)[C@@H]1CC[C@@H]2[C@@](C)(O)CNCc1cn(CCCc2ccccc2)nn1	1.04	> 9.14			> 8.77
1.77	> 10	C#CCNC[C@](C)(O)[C@H]1CC[C@H]2[C@@H]3CC=C4C[C@@H](O)CC[C@]4(C)[C@H]3CC[C@@]21C	> 10	> 12.3	> 6.95		
0.66	> 10	CC(C)=CCC/C(C)=C/Cn1cc(CN[C@H](C)[C@H]2CC[C@H]3[C@@H]4CC=C5C[C@@H](O)CC[C@]5(C)[C@H]4CC[C@]23C)nn1	1.14	> 9.35	> 14.2		> 8.2
0.63	> 10	CC(=O)O[C@H]1CC[C@@]2(C)C(=CC[C@H]3[C@@H]4CC[C@H]([C@H](C)NCc5cn(C/C=C(\C)CCC=C(C)C)nn5)[C@@]4(C)CC[C@@H]32)C1	4.83	> 8.67	> 13.8		> 1.79
1.25	> 10	CC(=O)O[C@H]1CC[C@@]2(C)C(=CC[C@H]3[C@@H]4CC[C@H]([C@@H](C)NCc5cn(C/C=C(\C)CCC=C(C)C)nn5)[C@@]4(C)CC[C@@H]32)C1	10.3	> 8.67	> 6.93		0.84
0.62	> 10	CCCCCCCCn1cc(CN[C@@H](C)[C@H]2CC[C@H]3[C@@H]4CC=C5C[C@@H](OC(C)=O)CC[C@]5(C)[C@H]4CC[C@]23C)nn1	7.87	> 9.04	> 14.6		> 1.15
8.28	> 10	COC(=O)c1cn(C[C@](C)(O)[C@H]2CC[C@H]3[C@@H]4CC=C5C[C@@H](O)CC[C@]5(C)[C@H]4CC[C@@]32C)nn1	> 10	> 10.6	> 1.28		
> 10	> 10	CCOC(=O)Cn1cc(CN[C@@H](C)[C@H]2CC[C@H]3[C@@H]4CC=C5C[C@@H](O)CC[C@]5(C)[C@H]4CC[C@]23C)nn1	6.4	> 10.3			> 1.61
1.78	> 10	C[C@]12CC[C@H]3[C@@H](CC=C4C[C@@H](O)CC[C@@]43C)[C@@H]1CC[C@@H]2[C@@](C)(O)Cn1cc(CCO)nn1	> 10	> 11.3	> 6.33		
1.8	8.88	C#CCN[C@@H](C)[C@H]1CC[C@H]2[C@@H]3CC=C4C[C@@H](OC(C)=O)CC[C@]4(C)[C@H]3CC[C@]12C	> 10	> 11.9	> 6.44	> 1.31	
	7.4	O=C(Cn1ccnc1[N+](=O)[O-])NCc1ccccc1 [BENZNIDAZOLE]				1.9	

More lines, now with the values behind:

Structure (SMILES)	IC50 (Trypanosoma brucei) [µM]	IC50 (Trypanosoma cruzi) [µM]	IC50 (Leishmania donovani) [µM]	IC50 at 48 h [1] [µM]	selectivity ratio [2]	selectivity ratio [3]	selectivity ratio [4]
CC(=O)O[C@H]1CC[C@@]2(C)C(=CC[C@H]3[C@@H]4CC[C@H]([C@@H](C)NCc5cn(Cc6ccccc6)nn5)[C@@]4(C)CC[C@@H]32)C1	1.15	> 10	> 10	> 7.16	> 6.22		
C[C@]12CC[C@H]3[C@@H](CC=C4C[C@@H](O)CC[C@@]43C)[C@@H]1CC[C@@H]2[C@@](C)(O)CN=[N+]=[N-]	> 10	> 10	> 10	> 12			
CC(=O)O[C@H]1CC[C@@]2(C)C(=CC[C@H]3[C@@H]4CC[C@H]([C@@H](C)NCc5cn(CCCc6ccccc6)nn5)[C@@]4(C)CC[C@@H]32)C1	0.2	4.5	> 10	> 8.95	> 44.7	> 1.99	
C[C@]12CC[C@H]3[C@@H](CC=C4C[C@@H](O)CC[C@@]43C)[C@@H]1CC[C@@H]2[C@@](C)(O)Cn1cc(CCCc2ccccc2)nn1	2.27	> 10	> 10	> 9.66	> 4.25		
CCCCCCCCn1cc(CN[C@H](C)[C@H]2CC[C@H]3[C@@H]4CC=C5C[C@@H](OC(C)=O)CC[C@]5(C)[C@H]4CC[C@]23C)nn1	1.98	> 10	> 10	> 9.04	> 4.57		
CCCCCCCCn1cc(CN[C@H](C)[C@H]2CC[C@H]3[C@@H]4CC=C5C[C@@H](O)CC[C@]5(C)[C@H]4CC[C@]23C)nn1	1.5	> 10	2.55	> 9.79	> 6.53		> 3.85
CCCCCc1cn(C[C@](C)(O)[C@H]2CC[C@H]3[C@@H]4CC=C5C[C@@H](O)CC[C@]5(C)[C@H]4CC[C@@]32C)nn1	0.18	6.33	> 10	> 10.6	> 59.8	> 1.68	
N=C(N)c1ccc(OCCCCCOc2ccc(C(=N)N)cc2)cc1 [PENTAMIDINE]							7.6
CCOC(=O)Cn1cc(CN[C@H](C)[C@H]2CC[C@H]3[C@@H]4CC=C5C[C@@H](OC(C)=O)CC[C@]5(C)[C@H]4CC[C@]23C)nn1	6.5	> 10	> 10	> 9.49	> 1.46		
CC1CS(=O)(=O)CCN1/N=C/c1ccc([N+](=O)[O-])o1 (stereo unspecified) [NIFURTIMOX]					18.8	15.2	
C#CCN[C@H](C)[C@H]1CC[C@H]2[C@@H]3CC=C4C[C@@H](OC(C)=O)CC[C@]4(C)[C@H]3CC[C@]12C	5.03	> 10	> 10	> 11.9	> 2.3		
CCOC(=O)Cn1cc(CN[C@H](C)[C@H]2CC[C@H]3[C@@H]4CC=C5C[C@@H](O)CC[C@]5(C)[C@H]4CC[C@]23C)nn1	6.5	> 10	6.6	> 10.3	> 1.59		> 1.56
